{"source": "paper PMC4079550", "about": "(Theriogenology, 2014)", "key": {"mice": {"tested_on": "mice", "conditions": "ref [24]; cited from earlier work"}, "male C57/Bl6 mice [1]": {"tested_on": "male C57/Bl6 mice", "assay": "Effect on spermatogenesis in vivo", "set-up": "species or system mouse"}, "Sertoli cells": {"tested_on": "Sertoli cells", "assay": "Anti-Mullerian hormone", "format": "cell-based, Sprague–Dawley rat", "conditions": "20 uM, after 24 and 48 hours of incubation; bright staining in control cultures"}, "male C57/Bl6 mice [2]": {"tested_on": "male C57/Bl6 mice", "assay": "Systemic toxicity: complete blood counts and routine chemistries", "format": "in vivo, mouse", "conditions": "melphalan alone 7.5 mg/kg ip once, data not shown"}, "male C57/Bl6 mice [3]": {"tested_on": "male C57/Bl6 mice", "assay": "Testicular histology after treatment in vivo", "set-up": "species or system mouse", "conditions": "single dose, Bouin's fixative, Hematoxylin-Periodic acid Schiff's stain, Figure 3"}, "murine testicular cells": {"tested_on": "murine testicular cells", "assay": "Microscopic appearance of testicular cell cultures", "format": "cell-based, Sprague–Dawley rat", "conditions": "20 μM, over 72 hours, Figure 2"}, "mouse fibroblasts": {"tested_on": "mouse fibroblasts", "assay": "LDH release cytotoxicity experiment using mouse fibroblasts", "format": "cell-based", "conditions": "at 72 hours, P<0.01 between the two"}, "[4]": {"conditions": "melphalan 7.5 mg/kg ip once on day 0, Week 4, n = 3 mice"}, "[5]": {"conditions": "melphalan 7.5 mg/kg ip once on day 0, Week 12, n = 3 mice"}}}
{"smiles": "NNC(=O)c1nn(Cc2ccc(Cl)cc2Cl)c2ccccc12", "note": "[adjudin]", "values": [{"measurement": "Increase of contraceptive efficacy by conjugation to FSHβ", "setting": "mice", "result": "10,000 fold"}]}
{"smiles": "N[C@@H](Cc1ccc(N(CCCl)CCCl)cc1)C(=O)O", "note": "[Melphalan]", "values": [{"measurement": "Daily Sperm Production/testis", "setting": "male C57/Bl6 mice [1]; [4]", "result": "0.515±0.013 ×10^6"}, {"measurement": "Spermatids/Testis", "setting": "male C57/Bl6 mice [1]; [4]", "result": "2.5±0.06 ×10^6"}, {"measurement": "Spermatids/mg of Tissue", "setting": "male C57/Bl6 mice [1]; [4]", "result": "0.054±0.003 ×10^6"}, {"measurement": "Daily Sperm Production/testis", "setting": "male C57/Bl6 mice [1]; [5]", "result": "1.9±0.12 ×10^6"}, {"measurement": "Spermatids/Testis", "setting": "male C57/Bl6 mice [1]; [5]", "result": "9.2±0.57 ×10^6"}, {"measurement": "Spermatids/mg of Tissue", "setting": "male C57/Bl6 mice [1]; [5]", "result": "0.106±0.10 ×10^6"}, {"measurement": "Staining for AMH (marker of Sertoli cells)", "setting": "Sertoli cells", "result": "very little"}, {"measurement": "Lymphocytes count at 4 weeks", "setting": "male C57/Bl6 mice [2]; 4 weeks", "result": "slight, non-significant reduction"}, {"measurement": "Lymphocyte count at 12 weeks", "setting": "male C57/Bl6 mice [2]; 12 weeks", "result": "normal"}, {"measurement": "Testis histology at four weeks", "setting": "male C57/Bl6 mice [3]", "result": "Marked loss of spermatocytes and spermatids"}, {"measurement": "Microscopic appearance of cultures compared to control cultures", "setting": "murine testicular cells", "result": "marked cell death"}, {"measurement": "LDH release", "setting": "mouse fibroblasts", "result": "20 % of maximal LDH release"}]}
